Source: patent publication US20260356824A1, “COMPOUNDS FOR TREATING FIBROTIC DISEASES” (Meta-Immue Inc., priority 2023, published 2026)

Assays:
[1] = system: A2058 cells; assay: Chemotaxis Assay (LPA-induced migration of A2058 cells); format: cell-based; details: Homo sapiens, 4 to 8 hours, crystal violet 590 nm
Protocol: For monitoring the migration of cells, Neuroprobe ChemoTx® System plates ([…], 5.7 mm diameter sites; Gaithersburg, MD, USA) were utilized. To induce cell migrations, a concentration of […] or vehicle in DMEM were loaded to the bottom chamber. A total of 15,000 A2058 cells, which were starved for 24 hr following treated with test compounds or vehicle, were then applied to the upper membrane coated with 0.001% fibronectin. The plate was incubated for 4 to 8 hours to allow cell migration. Following incubation, the plate was dissembled, and the migrated cells were visualized by crystal violet staining. The stained area with crystal violet was quantified by measuring the absorbance at 590 nm and the relative percentage of the control was calculated.

[2] = biological target: T1, hLPAR1 (Homo sapiens, UniProt Q92633); assay: Ca2+ Flux Assay (B103 cells stably expressing hLPAR1); format: cell-based; details: LPA-induced calcium release, Fura-2 AM, compound 20 min at RT
T1 construct: expressed in transfected cells
T1 sequence (Q92633 whole entry): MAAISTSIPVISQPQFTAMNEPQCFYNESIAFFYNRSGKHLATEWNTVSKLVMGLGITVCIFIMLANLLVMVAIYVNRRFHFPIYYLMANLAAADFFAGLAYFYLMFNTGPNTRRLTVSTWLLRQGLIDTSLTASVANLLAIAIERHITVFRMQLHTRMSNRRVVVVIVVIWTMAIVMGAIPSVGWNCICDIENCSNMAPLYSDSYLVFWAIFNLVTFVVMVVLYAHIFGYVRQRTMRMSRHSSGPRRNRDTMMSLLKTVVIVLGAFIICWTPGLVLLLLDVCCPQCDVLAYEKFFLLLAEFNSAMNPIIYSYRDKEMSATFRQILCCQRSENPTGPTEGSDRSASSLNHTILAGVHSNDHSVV
Protocol: B103 cells stably expressing hLPAR1 were seeded at a density of 1.0×10^5 cells per well in clear flat-bottom black 96-well plates and incubated overnight in complete media. The following day, the cells were pre-incubated in serum-free media for 2 hours prior to ensure cellular equilibration. For the loading a calcium-sensitive fluorescent dye, the cells were treated with a concentration of 5 μM Fura-2 AM dye (Sigma, F1225) in Hank's buffered salt solution (HBSS) supplemented with 20 mM HEPES, […], and 0.3% fatty-acid-free bovine serum albumin for 40 minutes at room temperature (RT). Test compounds, prepared in DMSO, were then added to each well and incubated for 20 minutes at RT. To induce calcium release, a concentration of […] in HBSS supplemented with 20 mM HEPES, and 0.3% fatty-acid-free bovine serum albumin was introduced. Intracellular calcium mobilization was subsequently quantified by monitoring the fluorescence intensity using the Spark® multimode microplate reader (TECAN).

| SMILES | IC50 [1] [nM] | IC50 [2] [nM] |
| --- | --- | --- |
| COc1cc(C2(CNS(=O)(=O)CCC(=O)O)CC2)ccc1N1CCC(c2nnn(C)c2NC(=O)O[C@H](C)c2ccccc2)CC1 [Compound 3] | ≥ 5000 | < 10 |
| Cc1noc(C2CCN(c3ccc(C4(C(=O)O)CC4)cc3)CC2)c1NC(=O)OCC1CC1 [Compound 5] | 500 to 5000 | 10 to 200 |
| Cc1nnn(C2CCN(c3ccc(C4(C(=O)NS(=O)(=O)C(F)(F)F)CC4)cc3)CC2)c1NC(=O)O[C@H](C)c1ccccc1 [Compound 15] | 500 to 5000 | 200 to 3000 |
| Cc1noc(C2CCN(c3ccc(C4(C(=O)O)CC4)cc3)CC2)c1NC(=O)N[C@H](C)c1ccccc1 [Compound 16] | 500 to 5000 | 10 to 200 |
| COc1c(C)cc(NC(=O)O[C@H](C)c2ccccc2)c(C2CCN(c3ccc(C4(C(=O)O)CC4)cc3)CC2)c1C [Compound 18] | 500 to 5000 | 200 to 3000 |
| C[C@@H](OC(=O)Nc1c(C2CCN(c3ccc(C4(C(=O)O)CC4)cc3)CC2)nnn1C)C1CCCCC1 [Compound 26, (R)-1-(4-(4-(5-(((1-cyclohexylethoxy)carbonyl)amino)-1-methyl-1H-1,2,3-triazol-4-yl)piperidin-1-yl)phenyl)cyclopropane-1-carboxylic acid] | 500 to 5000 | < 10 |
| C[C@@H](OC(=O)Nc1cccnc1C1CCN(c2ccc(C3(C(=O)O)CC3)cc2)CC1)c1ccccc1 [Compound 28] | 500 to 5000 | 10 to 200 |
| Cc1ncnc(C2CCN(c3ccc(C4(C(=O)O)CC4)cc3)CC2)c1NC(=O)O[C@H](C)c1ccccc1 [Compound 29] | 500 to 5000 | 200 to 3000 |
| Cc1noc(C2CCN(c3ccc(C4(C(=O)O)CC4)cc3)CC2)c1NC(=O)O[C@H](C)c1ccccc1C(C)(C)F [Compound 30] | 500 to 5000 | 10 to 200 |
| Cc1noc(C2CCN(c3ccc(C4(C(=O)O)CC4)cc3)CC2)c1NC(=O)[C@H](O)c1ccccc1 [Compound 32] | ≥ 5000 | 200 to 3000 |
| COc1cc(C2(C(=O)O)CC2)ccc1N1CC2(CC(c3onc(C)c3NC(=O)O[C@H](C)c3ccccc3)C2)C1 [Compound 46, 1-(3-methoxy-4-{6-[3-methyl-4-({[(1R)-1-phenylethoxy]carbonyl}amino)-1,2-oxazol-5-yl]-2-azaspiro[3.3]heptan-2-yl}phenyl)cyclopropane-1-carboxylic acid] | 500 to 5000 | < 10 |
| CO[C@@H](C(=O)Nc1c(C)noc1C1CCN(c2ccc(C3(C(=O)O)CC3)cc2)CC1)c1ccccc1 [Compound 47] | 500 to 5000 | 200 to 3000 |
| Cc1noc(C2CCN(c3ccc(C4(C(=O)O)CC4)cc3)CC2)c1Nc1cccc(-c2ccccc2)n1 [Compound 49] | 500 to 5000 | 10 to 200 |
| Cc1nnn(C2CCN(c3ccc(C4(C(=O)O)CC4)cc3)CC2)c1NC(=O)O[C@H](C)c1ccccc1Cl [Compound 51] | 500 to 5000 | < 10 |
| Cc1nnn(C2CCN(c3ccc(C4(C(=O)O)CC4)cc3)CC2)c1NC(=O)O[C@H](C)c1ccccc1 [Compound 53] | 500 to 5000 | < 10 |

More lines, now with the values ahead:

| IC50 [1] [nM] | IC50 [2] [nM] | SMILES |
| --- | --- | --- |
| < 100 | < 10 | COc1cc(C2(C(=O)NS(=O)(=O)CCC(=O)O)CC2)ccc1N1CCC(c2onc(C)c2NC(=O)O[C@H](C)c2ccccc2)CC1 [Compound 1, 3-[[1-[3-methoxy-4-[4-[3-methyl-4-[[(1R)-1-phenylethoxy]carbonylamino]isoxazol-5-yl]-1-piperidyl]phenyl]cyclopropanecarbonyl]sulfamoyl]propanoic acid] |
| < 100 | < 10 | C=CCS(=O)(=O)NC(=O)C1(c2ccc(N3CCC(c4onc(C)c4NC(=O)O[C@H](C)c4ccccc4)CC3)cc2)CC1 [Compound 2, (1R)-1-phenylethyl N-{3-methyl-5-[1-(4-{1-[(prop-2-ene-1-sulfonyl)carbamoyl]cyclopropyl}phenyl)piperidin-4-yl]-1,2-oxazol-4-yl}carbamate] |
| 500 to 5000 | < 10 | COc1cc(C2(C(=O)O)CC2)ccc1N1CCC(c2nnn(C)c2NC(=O)O[C@H](C)c2ccccc2)CC1 [Compound 4] |
| 100 to 500 | 10 to 200 | Cc1noc(C2CCN(c3ccc(C4(C(=O)NS(C)(=O)=O)CC4)cc3)CC2)c1NC(=O)O[C@H](C)c1ccccc1Cl [Compound 11] |
| < 100 | < 10 | Cc1noc(C2CCN(c3ccc(C4(C(=O)OCc5oc(=O)oc5C)CC4)cc3)CC2)c1NC(=O)O[C@H](C)c1ccccc1 [Compound 14] |
| 100 to 500 | < 10 | COCc1ccccc1[C@H](C)OC(=O)Nc1c(C2CCN(c3ccc(C4(C(=O)O)CC4)cc3)CC2)nnn1C [Compound 24, (S)-1-(4-(4-(5-(((1-(2-(methoxymethyl)phenyl)ethoxy)carbonyl)amino)-1-methyl-1H-1,2,3-triazol-4-yl)piperidin-1-yl)phenyl)cyclopropane-1-carboxylic acid] |
| < 100 | < 10 | C[C@@H](OC(=O)Nc1c(C2CCN(c3ccc(C4(C(=O)O)CC4)cc3)CC2)nnn1C)c1ccccc1Cl [Compound 27, 1-(4-{4-[5-({[(1R)-1-(2-chlorophenyl)ethoxy]carbonyl}amino)-1-methyl-1H-1,2,3-triazol-4-yl]piperidin-1-yl}phenyl)cyclopropane-1-carboxylic acid] |
| < 100 | 10 to 200 | Cc1ccccc1[C@@H](C)OC(=O)Nc1c(C)noc1C1CC2(C1)CN(c1ccc(C3(C(=O)NS(=O)(=O)CCC(=O)O)CC3)cc1)C2 [Compound 31, 3-({[1-(4-{6-[3-methyl-4-({[(1R)-1-(2-methylphenyl)ethoxy]carbonyl}amino)-1,2-oxazol-5-yl]-2-azaspiro[3.3]heptan-2-yl}phenyl)cyclopropyl]formamido}sulfonyl)propanoic acid] |
| < 100 | 10 to 200 | Cc1ccccc1[C@@H](C)OC(=O)Nc1c(C2CCN(c3ccc(C4(C(=O)O)CC4)cc3)CC2)cnn1C [Compound 34] |
| < 100 | < 10 | Cc1ccccc1[C@@H](C)OC(=O)Nc1c(C)nsc1C1CCN(c2ccc(C3(C(=O)O)CC3)cc2)CC1 [Compound 36] |
| < 100 | < 10 | C[C@@H](OC(=O)Nc1c(C2CCN(c3ccc(C4(C(=O)NS(=O)(=O)C5(C(=O)O)CC5)CC4)cc3)CC2)nnn1C)c1ccccc1Cl [Compound 39, 1-[[1-[4-[4-[5-[[(1R)-1-(2-chlorophenyl)ethoxy]carbonylamino]-1-methyl-triazol-4-yl]-1-piperidyl]phenyl]cyclopropanecarbonyl]sulfamoyl]cyclopropanecarboxylic acid] |
| 100 to 500 | 10 to 200 | C[C@@H](OC(=O)Nc1c(C2CCN(c3ccc(C4(C(=O)NS(=O)(=O)CC(C)(C)C(=O)O)CC4)cc3)CC2)nnn1C)c1ccccc1Cl [Compound 40] |
| 100 to 500 | < 10 | C[C@@H](OC(=O)Nc1c(C2CCN(c3ccc(C4(C(=O)NS(=O)(=O)CC5(C(=O)O)CC5)CC4)cc3)CC2)nnn1C)c1ccccc1Cl [Compound 41] |
| < 100 | 10 to 200 | Cc1nsc(C2CCN(c3ccc(C4(C(=O)O)CC4)cc3)CC2)c1NC(=O)O[C@H](C)c1ccccc1Cl [Compound 42] |
| 100 to 500 | 10 to 200 | Cc1nsc(C2CCN(c3ccc(C4(C(=O)O)CC4)cc3)CC2)c1NC(=O)O[C@H](C)c1ccccc1F [Compound 43] |
| 100 to 500 | 10 to 200 | COc1ccccc1[C@@H](C)OC(=O)N(C)c1c(C)nsc1C1CCN(c2ccc(C3(C(=O)O)CC3)cc2)CC1 [Compound 44] |
| 100 to 500 | 10 to 200 | Cc1noc(C2CCN(c3ccc(C4(C(=O)O)CC4)cc3)CC2)c1N(C)C(=O)O[C@H](C)c1ccccc1 [Compound 45] |
| < 100 | 10 to 200 | Cc1noc(C2CC3(C2)CN(c2ccc(C4(C(=O)NS(=O)(=O)CC(=O)O)CC4)cc2)C3)c1NC(=O)O[C@H](C)c1ccccc1 [Compound 48] |
| < 100 | < 10 | Cc1noc(C2CC3(C2)CN(c2ccc(C4(C(=O)NS(=O)(=O)CCC(=O)O)CC4)cc2)C3)c1NC(=O)O[C@H](C)c1ccccc1 [Compound 50] |
| < 100 | < 10 | Cc1noc(C2CC3(C2)CN(c2ccc(C4(C(=O)NS(=O)(=O)CCCO)CC4)cc2)C3)c1NC(=O)O[C@H](C)c1ccccc1 [Compound 52] |
| 100 to 500 | < 10 | C[C@@H](OC(=O)Nc1c(C2CCN(c3ccc(C4(C(=O)NS(=O)(=O)C(C)(C)C(=O)O)CC4)cc3)CC2)nnn1C)c1ccccc1 [Compound 56] |
| < 100 | < 10 | C[C@@H](OC(=O)Nc1c(C2CCN(c3ccc(C4(C(=O)NS(=O)(=O)C5(C(=O)O)CC5)CC4)cc3)CC2)nnn1C)c1ccccc1 [Compound 57, 1-[[1-[4-[4-[1-methyl-5-[[(1R)-1-phenylethoxy]carbonylamino]triazol-4-yl]-1-piperidyl]phenyl]cyclopropanecarbonyl]sulfamoyl]cyclopropanecarboxylic acid] |
| < 100 | < 10 | Cc1noc(C2CCN(c3ccc(C4(C(=O)NS(=O)(=O)C(F)(F)C(N)=O)CC4)cc3)CC2)c1NC(=O)O[C@H](C)c1ccccc1 [Compound 66] |
